Where two headings read alike, the source gives them in different places.
Columns and labels:
[1] = tested on: whole blood (pERK); assay: pERK Whole Blood assay (Table A; no whole-blood pERK method described); format: cell-based; conditions: normalized
[2] = tested on: human venous whole blood (IFN-γ); assay: Human whole blood IFN-γ assay; format: cell-based; conditions: whole blood, normalized to 3 μM reference compound as 100% activation, read-out: IFN-γ Whole Blood Normalized EC50
Experimental: Human venous whole blood (22.5 μL per well), obtained from healthy donors, was pre-treated with compounds for one hour at 37° C. in a humidified 95% air/5% CO2 incubator. The blood was stimulated with 2.5 μL anti-human CD3 and anti-CD28 mAb at a final concentration of 1 μg/mL each for 24 hours at 37° C. IFN-γ in the supernatants was measured using AlphLISA kit (Cat #AL217).

[3] = target: human DGKζ (Homo sapiens (Human), UniProt Q13574); assay: DGKζ LIPGLO assay (extruded liposome substrate, ADP-Glo luminescence); format: biochemical; conditions: liposome assay; read-out: DGK zeta LIPGLO IC50
[4] = target: human DGKα (Homo sapiens (Human), UniProt P23743); assay: DGKα LIPGLO assay (extruded liposome substrate, ADP-Glo luminescence); format: biochemical; conditions: liposome assay; read-out: DGK alpha LIPGLO IC50
Sequence of human DGKα (P23743 whole entry, looked up): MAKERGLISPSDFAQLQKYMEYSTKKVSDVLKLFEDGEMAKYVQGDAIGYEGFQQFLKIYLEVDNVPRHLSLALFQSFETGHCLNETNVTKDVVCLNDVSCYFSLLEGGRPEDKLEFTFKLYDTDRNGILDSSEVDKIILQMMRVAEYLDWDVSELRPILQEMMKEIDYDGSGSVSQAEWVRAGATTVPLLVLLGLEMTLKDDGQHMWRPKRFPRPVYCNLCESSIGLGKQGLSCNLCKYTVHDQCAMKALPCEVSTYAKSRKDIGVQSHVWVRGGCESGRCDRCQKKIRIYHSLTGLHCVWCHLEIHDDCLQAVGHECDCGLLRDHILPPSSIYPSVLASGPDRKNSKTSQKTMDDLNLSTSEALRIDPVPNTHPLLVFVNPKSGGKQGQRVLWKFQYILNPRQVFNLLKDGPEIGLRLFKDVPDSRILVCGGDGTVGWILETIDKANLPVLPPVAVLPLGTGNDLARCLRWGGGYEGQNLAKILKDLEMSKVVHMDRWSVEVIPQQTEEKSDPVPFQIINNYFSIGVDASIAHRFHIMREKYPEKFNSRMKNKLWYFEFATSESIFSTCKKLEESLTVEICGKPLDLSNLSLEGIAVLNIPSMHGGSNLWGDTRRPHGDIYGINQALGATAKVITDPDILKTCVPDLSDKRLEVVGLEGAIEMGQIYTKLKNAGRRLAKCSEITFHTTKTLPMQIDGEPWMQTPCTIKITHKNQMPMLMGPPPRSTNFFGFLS

Sequence of human DGKζ (Q13574 other isoform, or with tags, fused parts or gaps): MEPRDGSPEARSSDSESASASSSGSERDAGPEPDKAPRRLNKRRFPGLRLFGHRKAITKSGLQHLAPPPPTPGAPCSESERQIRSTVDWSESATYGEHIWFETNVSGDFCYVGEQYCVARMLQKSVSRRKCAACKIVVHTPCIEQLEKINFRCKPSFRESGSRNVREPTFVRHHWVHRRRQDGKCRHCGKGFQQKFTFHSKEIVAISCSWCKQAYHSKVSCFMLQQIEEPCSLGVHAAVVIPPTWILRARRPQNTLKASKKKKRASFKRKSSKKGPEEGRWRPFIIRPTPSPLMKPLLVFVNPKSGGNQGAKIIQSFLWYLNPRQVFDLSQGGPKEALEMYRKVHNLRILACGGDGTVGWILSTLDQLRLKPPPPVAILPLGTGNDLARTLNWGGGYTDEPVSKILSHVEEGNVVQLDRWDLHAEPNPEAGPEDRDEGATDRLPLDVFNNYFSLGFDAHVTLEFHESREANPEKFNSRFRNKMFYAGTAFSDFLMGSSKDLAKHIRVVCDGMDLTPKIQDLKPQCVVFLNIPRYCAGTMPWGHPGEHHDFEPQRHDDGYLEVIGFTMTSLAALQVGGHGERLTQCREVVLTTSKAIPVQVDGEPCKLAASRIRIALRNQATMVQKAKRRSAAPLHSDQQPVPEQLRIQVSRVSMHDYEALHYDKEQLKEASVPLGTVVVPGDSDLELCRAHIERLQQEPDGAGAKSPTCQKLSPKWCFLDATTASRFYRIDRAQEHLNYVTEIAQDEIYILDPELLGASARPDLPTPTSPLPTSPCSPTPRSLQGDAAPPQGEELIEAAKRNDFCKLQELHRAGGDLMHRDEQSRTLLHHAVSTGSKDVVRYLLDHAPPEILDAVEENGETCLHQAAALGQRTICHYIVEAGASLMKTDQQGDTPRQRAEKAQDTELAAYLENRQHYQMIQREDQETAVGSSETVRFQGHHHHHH

Row | IC50 [3] [nM] | IC50 [4] [nM] | Structure (SMILES) | IC50 [1] [nM] | EC50 [2] [nM] | EC50 ([2]; Homo sapiens) [nM]
1 | 36 | 350 | CC[C@H]1CN(C(C)c2ccc3c(c2)OC(F)(F)O3)[C@H](CC)CN1c1nc(=O)n(C)c2ccc(C#N)nc12 (single isomer, unassigned) [Example 14] | 900 | 94 | –
2 | 10 | 40 | CC[C@H]1CN(C(C)c2ccc(C3CC3)cc2)[C@H](CC)CN1c1nc(=O)n(C)c2ccc(C#N)nc12 (single isomer, unassigned) [Example 29] | 100 | 27 | –
3 | 1890 | 1130 | CC(c1ccc(F)cc1F)N1C[C@H](C)N(c2nc(=O)n(C)c3ccc(C#N)nc23)C[C@H]1C (single isomer, unassigned) [Example 145] | 750 | – | 20000
4 | 4 | 76 | CC[C@H]1CN(C(C)c2ccc(OC(F)(F)F)c(F)c2)[C@H](CC)CN1c1nc(=O)n(C)c2ccc(C#N)nc12 (single isomer, unassigned) [Example 30] | 59 | 23 | –
5 | 42 | 8290 | CC[C@H]1CN(C(c2ccc(F)cc2)c2nc(C3CC3)nn2C)[C@H](CC)CN1c1nc(=O)n(C)c2ccc(C#N)nc12 (single isomer, unassigned) [Example 294] | 200 | – | 660
6 | 66 | 140 | CC[C@@H]1CN(c2nc(=O)n(C)c3ccc(C#N)nc23)[C@@H](C)CN1C(c1ccc(F)cc1)c1cc(C2CC2)on1 (single isomer, unassigned) [Example 101] | 250 | – | 100
7 | 200 | 350 | CC(c1ccc(C(F)(F)F)cc1F)N1C[C@H](C)N(c2nc(=O)n(C)c3ccc(C#N)nc23)C[C@H]1C (single isomer, unassigned) [Example 150] | 140 | – | 480
8 | 230 | 52 | CC(c1ccc(OC(F)(F)F)cc1F)N1C[C@H](C)N(c2nc(=O)n(C)c3ccc(C#N)nc23)C[C@H]1C (single isomer, unassigned) [Example 142] | 100 | – | 3650
9 | 36 | 140 | CC[C@H]1CN(C(C)c2ccc(C(F)(F)F)cc2)[C@H](CC)CN1c1nc(=O)n(C)c2ccc(C#N)nc12 (single isomer, unassigned) [Example 20] | 130 | 60 | –
10 | 11 | 37 | CC[C@@H]1CN(c2nc(=O)n(C)c3ccc(C#N)nc23)[C@@H](C)CN1C(C)c1ccc(OC)cc1 (single isomer, unassigned) [Example 56] | 200 | 39 | –
11 | 110 | 180 | COC[C@@H]1CN(c2nc(=O)n(C)c3ccc(C#N)nc23)[C@@H](C)CN1C(C)c1ccc(OC(F)(F)F)cc1 (single isomer, unassigned) [Example 176] | 210 | 190 | –
12 | 12 | 120 | CC[C@H]1CN(C(C)c2ccc(C(C)(C)C#N)cc2)[C@H](CC)CN1c1nc(=O)n(C)c2ccc(C#N)nc12 (stereo partly drawn) [Example 196, 4-((2S,5R)-4-(1-(4-(2-cyanopropan-2-yl)phenyl)ethyl)-2,5-diethylpiperazin-1-yl)-1-methyl-2-oxo-1,2-dihydropyrido[3,2-d]pyrimidine-6-carbonitrile] | 49 | 31 | –
13 | 120 | 30 | CC[C@H]1CN(C(c2ccc(F)cc2)c2ccon2)[C@H](CC)CN1c1nc(=O)n(C)c2ccc(C#N)nc12 (single isomer, unassigned) [Example 35] | 150 | 120 | –
14 | 130 | 300 | CC[C@@H]1CN(c2nc(=O)n(C)c3ccc(C#N)nc23)[C@@H](C)CN1C(C)c1ccc(OC(F)(F)F)cc1F (single isomer, unassigned) [Example 81] | 99 | 57 | –
15 | 2560 | 560 | C[C@@H]1CN(c2nc(=O)n(C)c3ccc(C#N)nc23)[C@@H](C)CN1C(c1ccc(F)cc1)c1ccc(F)cc1 [Example 124, 4-((2S,5R)-4-(bis(4-fluorophenyl)methyl)-2,5-dimethylpiperazin-1-yl)-1-methyl-2-oxo-1,2-dihydropyrido[3,2-d]pyrimidine-6-carbonitrile] | 270 | – | 500
16 | 120 | 66 | CC[C@H]1CN(C(C)c2ccc(OC(F)(F)F)cc2F)[C@H](CC)CN1c1nc(=O)n(C)c2ccc(C#N)nc12 (single isomer, unassigned) [Example 38] | 220 | 72 | –

Row | IC50 [3] [nM] | IC50 [4] [nM] | Structure (SMILES) | IC50 [1] [nM] | EC50 [2] [nM] | EC50 ([2]; Homo sapiens) [nM]
17 | 27 | 37 | CC[C@@H]1CN(c2nc(=O)n(C)c3ccc(C#N)nc23)[C@@H](C)CN1C(c1ccc(F)cc1)c1nc(C2CC2)cs1 (single isomer, unassigned) [Example 51] | 9 | – | 6
18 | 140 | 29 | CC[C@@H]1CN(c2nc(=O)n(C)c3ccc(C#N)nc23)[C@@H](C)CN1C(c1ccc(F)cc1)c1ccon1 (single isomer, unassigned) [Example 73] | 80 | 22 | –
19 | 130 | 10 | CC(c1ccc(OC(F)(F)F)cc1)N1C[C@H](C)N(c2nc(=O)n(C)c3ccc(C#N)nc23)C[C@H]1C (single isomer, unassigned) [Example 131] | 170 | 360 | –
20 | 40 | 130 | C[C@@H]1CN(c2nc(=O)n(C)c3ccc(C#N)nc23)[C@@H](C)CN1C(c1ccc(F)cc1)c1nc(C2CC2)no1 (single isomer, unassigned) [Example 107] | 120 | 49 | –
21 | 50 | 400 | C[C@@H]1CN(c2nc(=O)n(C)c3ccc(C#N)nc23)[C@@H](C)CN1C(c1ccc(F)cc1)c1nc(C(C)(C)C)no1 (single isomer, unassigned) [Example 108] | 28 | – | 57
22 | 44 | 47 | CC(c1ccc(Cl)cc1F)N1C[C@H](C)N(c2nc(=O)n(C)c3ccc(C#N)nc23)C[C@H]1C (single isomer, unassigned) [Example 146] | 250 | – | 710
23 | 350 | 240 | CC[C@@H]1CN(c2nc(=O)n(C)c3ccc(C#N)nc23)[C@@H](C)CN1Cc1ccc(OC(F)(F)F)cc1 [Example 54, 4-((2S,5R)-5-ethyl-2-methyl-4-(4-(trifluoromethoxy)benzyl)piperazin-1-yl)-1-methyl-2-oxo-1,2-dihydropyrido[3,2-d]pyrimidine-6-carbonitrile] | 910 | – | 310
24 | 92 | 29 | CCC(c1ccc(OC(F)(F)F)cc1F)N1C[C@H](C)N(c2nc(=O)n(C)c3ccc(C#N)nc23)C[C@H]1C (single isomer, unassigned) [Example 152] | 110 | 200 | –
25 | 36 | 16 | CC[C@H]1CN(C(c2ccc(F)cc2)c2ccc(C(F)(F)F)cn2)[C@H](CC)CN1c1nc(=O)n(C)c2ccc(C#N)nc12 (single isomer, unassigned) [Example 1] | 1040 | 27 | –
26 | 1380 | 330 | CC(c1ccc(OC(F)F)cc1)N1C[C@H](C)N(c2nc(=O)n(C)c3ccc(C#N)nc23)C[C@H]1C (single isomer, unassigned) [Example 157] | 4360 | – | 1420
27 | 47 | 32 | CC[C@H]1CN(C(c2ccc(F)cc2)c2ccc(C(F)(F)F)cn2)[C@H](CC)CN1c1nc(=O)n(C)c2ccc(C#N)nc12 (single isomer, unassigned) [Example 2] | 150 | 76 | –
28 | 2470 | 160 | CC[C@H]1CN(C(c2ccc(F)cc2)c2ccc(C(F)(F)F)cn2)[C@H](C)CN1c1nc(=O)n(C)c2ccc(C#N)nc12 (stereo partly drawn) [Example 115, 4-((2S,5R)-2-ethyl-4-((4-fluorophenyl)(5-(trifluoromethyl)pyridin-2-yl)methyl)-5-methylpiperazin-1-yl)-1-methyl-2-oxo-1,2-dihydropyrido[3,2-d]pyrimidine-6-carbonitrile] | 520 | 230 | –
29 | 29 | 58 | CC[C@H]1CN(C(C)c2ccc(OCC3CC3)cc2)[C@H](CC)CN1c1nc(=O)n(C)c2ccc(C#N)nc12 (single isomer, unassigned) [Example 23] | 86 | 11 | –
30 | 600 | 410 | CCC(c1ccc(OC(F)(F)F)cc1F)N1C[C@H](CC)N(c2nc(=O)n(C)c3ccc(C#N)nc23)C[C@H]1CC (single isomer, unassigned) [Example 12] | 600 | – | 4150
31 | 2 | 2 | CC[C@H]1CN(C(C)c2ccc(C(F)(F)F)cc2)[C@H](C)CN1c1nc(=O)n(C)c2ccc(C#N)nc12 (stereo partly drawn) [Example 117, 4-((2S,5R)-2-ethyl-5-methyl-4-(1-(4-(trifluoromethyl)phenyl)ethyl)piperazin-1-yl)-1-methyl-2-oxo-1,2-dihydropyrido[3,2-d]pyrimidine-6-carbonitrile] | 780 | 160 | –

Source: US11584747B2, “Substituted pyridopyrimidinonyl compounds useful as T cell activators” (BRISTOL-MYERS SQUIBB COMPANY, priority 2019, dated 2023)
